Like-named read-outs stand apart in the source and are kept apart here. Numbered stars: 1 amine (or outer) side, 2 acyl side, 3 side chain; on linkers, the order of the positions; unused ones are H or OH. Bridge positions count the residues as written; N and C are the ends. Square brackets hold non-standard residues; d marks the D form. Side chains are listed from the residue outwards. Peptide text beside a SMILES is read from it. * marks the point of attachment. X3 = O=C(O)CN1CCN(CC(=O)O)CCN(CC(=O)NCCCOCCOCCOCCCN*)CCN(CC(=O)O)CC1; DOTA = O=C(O)CN1CCN(CC(=O)O)CCN(CC(=O)*)CCN(CC(=O)O)CC1; Phe(3-CN) = N#Cc1cccc(C[C@H](N)C(=O)O)c1; Phe(4-Cl) = N[C@@H](Cc1ccc(Cl)cc1)C(=O)O; 1Nal = N[C@@H](Cc1cccc2ccccc12)C(=O)O; hArg = N=C(N)NCCCC[C@H](N)C(=O)O; X1 = O=C(CC1CCN([*:1])CC1)[*:2]; Suc = O=C(CCC(=O)[*:2])[*:1]; Tle = CC(C)(C)[C@H](N)C(=O)O; 4Amb = NCc1ccc(C(=O)O)cc1; Aib = CC(C)(N)C(=O)O
Legend:
[1] = target: T1, PSMA-expressing C4-2 cells (Homo sapiens, UniProt Q04609); test: FACS binding assay (competition with 50 nM PSM-0183); conditions: read-out: pIC50 [C4-2] CAT (converted)
T1 construct: PSMA-expressing C4-2 cells (ATCC, Cat. No. CRL-3314) were cultured in RPMI-1640; host or cells: C4-2 cells
Method: In order to determine binding of compounds according to the present invention to PSMA-expressing cells, a FACS binding assay was established.
PSMA-expressing C4-2 cells (ATCC, Cat. No. CRL-3314) were cultured in RPMI-1640 (Pan Biotech, Cat. No. P04-18050) including 10% fetal calf serum (Biochrom) and 100 U/ml penicillin and 100 μg/mL streptomycin (Sigma, Cat. No. P0781). Cells were detached with Accutase (Biolegend, Cat. No. BLD-423201) and washed in FACS buffer (PBS (Sigma, Cat. No. D8537) including 1% fetal calf serum). Cells were diluted in FACS buffer to a final concentration of 500,000 cells per mL. 200 μL of the cell suspension were transferred to a u-shaped non-binding 96-well plate (Greiner Bio-One, Cat. No. 650901) and cells were washed in ice-cold FACS buffer.
For IC50 determination, C4-2 cells were incubated with 50 nM PSM-0183 (Ac-Thr-Aib-Phe[Cys-Lys-Arg-Aib-Asn-Cys]-Tle-Thr-Asp-Ttds-Ttds-AF488N3K-NH2) in the presence of increasing concentrations of test compounds at 4° C. for 1 hour. After two wash steps with ice-cold FACS buffer, cells were analyzed in an Attune NxT flow cytometer. Median fluorescence intensities (MFI) of the FITC/AF488-channel were calculated by Attune NxT software. MFI values were plotted against peptide concentration and four parameter logistic (4PL) curve fitting and IC50/pIC50 calculations were performed using ActivityBase software (IDBS).

[2] = target: T2, Fc-fusion protein of human PSMA (hPSMA-Fc) (Homo sapiens, UniProt Q04609); test: Surface plasmon resonance assay (Biacore T200, single cycle kinetic); type: binding; conditions: read-out: pKD CAT (converted)
T2 construct: purchased Acro Biosystems PSA-H5264
Method: Surface plasmon resonance (SPR) studies were performed using a Biacore™ T200 SPR system. Briefly, polarized light is directed towards a gold-labeled sensor surface, and minimum intensity reflected light is detected. The angle of reflected light changes as molecules bind and dissociate.
Fc-fusion protein of human PSMA (hPSMA-Fc, Acro Biosystems, Cat #PSA-H5264) was captured on a Fc-capture chip (Biacore™ CM5 sensor chip coated with ˜300 RU of an Fc-binding peptide). hPSMA-Fc was diluted in Running Buffer (HBST, 0.1% DMSO) to a final concentration of 100 nM and then flushed over the Fc-capture chip to immobilized ˜1000 RUs.
Stock solutions of test compounds were prepared by dissolving each compound in DMSO. DMSO stock solution were diluted 1:1000 in Running Buffer without DMSO. Further sequential dilutions were made with Running Buffer containing 0.1% DMSO. SPR binding analyses were performed in Single Cycle Kinetic (SCK) mode at 25° C. Flow cell coated with the Fc-binding peptide only served as reference flowcell. After each SCK run, hPSMA-Fc was removed with 10 mM glycine buffer, pH 1.5.
In between every three SCK measurements, a blank run with Running Buffer instead of test compound was included to correct for baseline drifts (double blanking method).
Table 5 describes the protocol steps for Fc-fusion target capturing and assessment of the binding kinetics.
For each test compound, SPR raw data in the form of resonance units (RU) were plotted as sensorgrams using the Biacore™ T200 control software. The signal from the blank sensorgram was subtracted from that of the test compound sensorgram (blank corrected). The blank corrected sensorgram was corrected for baseline drift by subtracting the sensorgram of a SCK run without the test compound (running buffer only). The dissociation constant (KD) was calculated from Blank-normalized SPR data using the 1:1 Langmuir binding model from the Biacore™ Insight Evaluation software. The pKD value (negative decadic logarithm of dissociation constant) was calculated using Microsoft Excel.

[3] = FACS binding, PSMA-expressing C4-2 cells, pIC50 category
[4] = PSMA SPR assay, hPSMA-Fc, 25° C., pKD category
[5] = pIC50 category of FACS binding, C4-2 cells
[6] = pKD category for PSMA SPR activity assay, hPSMA-Fc, 25° C.

T2 sequence (Q04609 44-750 limits assumed): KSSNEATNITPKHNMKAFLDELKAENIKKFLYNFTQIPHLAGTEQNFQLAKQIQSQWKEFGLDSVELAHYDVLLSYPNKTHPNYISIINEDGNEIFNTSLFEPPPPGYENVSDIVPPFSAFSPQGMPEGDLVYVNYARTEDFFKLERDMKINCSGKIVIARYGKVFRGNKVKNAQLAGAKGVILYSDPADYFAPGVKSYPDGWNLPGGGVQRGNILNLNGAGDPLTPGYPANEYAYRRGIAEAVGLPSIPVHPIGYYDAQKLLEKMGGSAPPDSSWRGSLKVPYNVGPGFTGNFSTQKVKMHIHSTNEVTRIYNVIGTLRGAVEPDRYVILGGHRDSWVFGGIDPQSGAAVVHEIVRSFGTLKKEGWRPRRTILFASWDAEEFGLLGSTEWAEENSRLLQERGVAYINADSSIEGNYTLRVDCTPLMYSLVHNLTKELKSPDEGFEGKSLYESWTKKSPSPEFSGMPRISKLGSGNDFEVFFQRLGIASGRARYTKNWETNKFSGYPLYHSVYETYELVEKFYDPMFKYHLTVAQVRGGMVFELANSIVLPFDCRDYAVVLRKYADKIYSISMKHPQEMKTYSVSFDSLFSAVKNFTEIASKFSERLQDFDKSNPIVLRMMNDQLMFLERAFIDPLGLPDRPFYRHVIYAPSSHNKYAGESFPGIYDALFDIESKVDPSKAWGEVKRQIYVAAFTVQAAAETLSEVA
T1 sequence (Q04609 whole entry): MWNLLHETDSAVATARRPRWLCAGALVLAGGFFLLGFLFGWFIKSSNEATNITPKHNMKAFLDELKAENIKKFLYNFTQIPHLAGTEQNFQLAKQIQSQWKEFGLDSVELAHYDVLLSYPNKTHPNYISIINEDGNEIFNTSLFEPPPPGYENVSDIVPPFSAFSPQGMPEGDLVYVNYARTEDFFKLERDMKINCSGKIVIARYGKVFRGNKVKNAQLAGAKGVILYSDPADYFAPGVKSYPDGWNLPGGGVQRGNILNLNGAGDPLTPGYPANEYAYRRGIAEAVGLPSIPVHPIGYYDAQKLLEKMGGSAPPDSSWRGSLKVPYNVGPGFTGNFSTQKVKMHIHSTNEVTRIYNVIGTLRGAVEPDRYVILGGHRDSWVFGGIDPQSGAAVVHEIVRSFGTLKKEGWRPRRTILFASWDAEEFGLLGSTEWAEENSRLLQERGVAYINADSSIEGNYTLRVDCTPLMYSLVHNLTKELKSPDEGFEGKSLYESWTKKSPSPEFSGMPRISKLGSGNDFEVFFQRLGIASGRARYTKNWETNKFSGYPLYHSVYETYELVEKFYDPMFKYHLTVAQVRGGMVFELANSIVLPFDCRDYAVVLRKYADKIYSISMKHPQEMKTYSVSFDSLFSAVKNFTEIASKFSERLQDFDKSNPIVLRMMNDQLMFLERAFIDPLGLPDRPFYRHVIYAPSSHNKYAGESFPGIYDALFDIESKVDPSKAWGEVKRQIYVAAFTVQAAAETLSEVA

Structure (SMILES)	IC50 [1, 5] [nM]	Kd [2, 6] [nM]	other results
C[C@@H](O)[C@H](NC(=O)[C@@H](NC(=O)[C@@H]1CSSC[C@H](NC(=O)[C@H](Cc2ccc(Cl)cc2)NC(=O)C(C)(C)NC(=O)[C@@H](NC(=O)CC2CCN(C(=O)CN3CCN(CC(=O)O)CCN(CC(=O)O)CCN(CC(=O)O)CC3)CC2)[C@@H](C)O)C(=O)N[C@@H](CCCCN)C(=O)N[C@@H](CCCCNC(=N)N)C(=O)NC(C)(C)C(=O)N[C@@H](CC(N)=O)C(=O)N1)C(C)(C)C)C(N)=O [PSM-0317, DOTA-Cmp-Thr-Aib-Pcf-[Cys-Lys-Har-Aib-Asn-Cys]-Tle-Thr-NH2] ({DOTA}-[X1]T[Aib][Phe(4-Cl)]CK[hArg][Aib]NC[Tle]T-NH2; disulfide 5-10)	–	–	IC50 [1, 3]: < 200 nM; Kd [2, 4]: < 12.6 nM
CC(=O)N[C@H](C(=O)NC(C)(C)C(=O)N[C@@H](Cc1ccccc1)C(=O)N[C@H]1CSSC[C@@H](C(=O)N[C@H](C(=O)N[C@H](C(N)=O)[C@@H](C)O)C(C)(C)C)NC(=O)[C@H](Cc2ccccc2)NC(=O)C(C)(C)NC(=O)[C@H](CCCNC(=N)N)NC(=O)[C@H](CCCCN)NC1=O)[C@@H](C)O [PSM-0541, Ac-Thr-Aib-Phe-[Cys-Lys-Arg-Aib-Phe-Cys]-Tle-NH2] (Ac-T[Aib]FCKR[Aib]FC[Tle]T-NH2; disulfide 4-9)	< 200	< 12.6	–
CC(=O)N[C@H](C(=O)NC(C)(C)C(=O)N[C@@H](Cc1cccc2ccccc12)C(=O)N[C@H]1CSSC[C@@H](C(=O)N[C@H](C(=O)N[C@H](C(=O)N[C@@H](CC(=O)O)C(N)=O)[C@@H](C)O)C(C)(C)C)NC(=O)[C@H](CC(N)=O)NC(=O)C(C)(C)NC(=O)[C@H](CCCNC(=N)N)NC(=O)[C@H](CCCCN)NC1=O)[C@@H](C)O [PSM-0249, Ac-Thr-Aib-1Ni-[Cys-Lys-Arg-Aib-Asn-Cys]-Tle-Thr-Asp-NH2] (Ac-T[Aib][1Nal]CKR[Aib]NC[Tle]TD-NH2; disulfide 4-9)	–	–	IC50 ([1]; FACS binding, C4-2 cells, competition with 50 nM PSM-0183, category): < 200 nM; Kd ([2]; SPR, hPSMA-Fc, single cycle kinetic, 25° C., category): < 12.6 nM
CC(=O)NC(=N)NCCC[C@@H]1NC(=O)[C@H](CCCCN)NC(=O)[C@@H](NC(=O)[C@H](Cc2ccc(Cl)cc2)NC(=O)C(C)(C)NC(=O)[C@@H](NC(C)=O)[C@@H](C)O)CSSC[C@@H](C(=O)N[C@H](C(=O)N[C@H](C(N)=O)[C@@H](C)O)C(C)(C)C)NC(=O)[C@H](CC(N)=O)NC(=O)C(C)(C)NC1=O [PSM-0569, Ac-Thr-Aib-Pcf-[Cys-Lys-Arg(Ac)-Aib-Asn-Cys]-Tle-Thr-NH2] (Ac-T[Aib][Phe(4-Cl)]CKR(Ac)[Aib]NC[Tle]T-NH2; disulfide 4-9)	–	–	IC50 ([1]; FACS binding, C4-2 cells, category): < 200 nM; Kd ([2]; PSMA SPR assay, category): < 12.6 nM
CC(=O)N[C@H](C(=O)NC(C)(C)C(=O)N[C@@H](Cc1cccc(C#N)c1)C(=O)N[C@H]1CSSC[C@@H](C(=O)N[C@H](C(=O)N[C@H](C(N)=O)[C@@H](C)O)C(C)(C)C)NC(=O)[C@H](CC(N)=O)NC(=O)C(C)(C)NC(=O)[C@H](CCCNC(=N)N)NC(=O)[C@H](CCCCN)NC1=O)[C@@H](C)O [PSM-0555, Ac-Thr-Aib-Mnf-[Cys-Lys-Arg-Aib-Asn-Cys]-Tle-Thr-NH2] (Ac-T[Aib][Phe(3-CN)]CKR[Aib]NC[Tle]T-NH2; disulfide 4-9)	< 200	< 12.6	–
CC(=O)N[C@H](C(=O)NC(C)(C)C(=O)N[C@@H](Cc1ccccc1)C(=O)N[C@H]1CSSC[C@@H](C(=O)N[C@H](C(=O)N[C@H](C(=O)NCc2ccc(C(=O)N[C@H](CCCCNC(=O)CN3CCN(CC(=O)O)CCN(CC(=O)O)CCN(CC(=O)O)CC3)C(N)=O)cc2)[C@@H](C)O)C(C)(C)C)NC(=O)[C@H](CC(N)=O)NC(=O)C(C)(C)NC(=O)[C@H](CCCNC(=N)N)NC(=O)[C@H](CCCCN)NC1=O)[C@@H](C)O [PSM-0522, Ac-Thr-Aib-Phe-[Cys-Lys-Arg-Aib-Asn-Cys]-Tle-Thr-Pamb-lys(DOTA)-NH2] (Ac-T[Aib]FCKR[Aib]NC[Tle]T[4Amb][dK](DOTA)-NH2; disulfide 4-9)	< 200	< 12.6	–
C[C@@H]1NC(=O)[C@H](CCCNC(=N)N)NC(=O)[C@H](CCCCN)NC(=O)[C@@H](NC(=O)[C@H](Cc2ccccc2)NC(=O)[C@H](C)NC(=O)[C@@H](NC(=O)CCC(=O)NCCCOCCOCCOCCCNC(=O)CN2CCN(CC(=O)O)CCN(CC(=O)O)CCN(CC(=O)O)CC2)[C@@H](C)O)CSSC[C@@H](C(=O)N[C@H](C(=O)N[C@H](C(=O)N[C@@H](CC(=O)O)C(N)=O)[C@@H](C)O)C(C)(C)C)NC(=O)[C@H](CC(N)=O)NC1=O [PSM-0342, DOTA-Ttds-Thr-Ala-Phe-[Cys-Lys-Arg-Ala-Asn-Cys]-Tle-Thr-Asp-NH2] ({X3-Suc}-TAFCKRANC[Tle]TD-NH2; disulfide 4-9)	–	–	IC50 [1, 3]: < 200 nM; Kd [2, 4]: 12.6 to 126 nM
CC(C)C[C@H](NC(=O)[C@@H]1CSSC[C@H](NC(=O)[C@H](Cc2ccccc2)NC(=O)[C@H](C)NC(=O)[C@@H](NC(=O)CCC(=O)NCCCOCCOCCOCCCNC(=O)CN2CCN(CC(=O)O)CCN(CC(=O)O)CCN(CC(=O)O)CC2)[C@@H](C)O)C(=O)N[C@@H](CCCCN)C(=O)N[C@@H](CCCNC(=N)N)C(=O)N[C@@H](C)C(=O)N[C@@H](CC(N)=O)C(=O)N1)C(N)=O [PSM-0480, DOTA-Ttds-Thr-Ala-Phe-[Cys-Lys-Arg-Ala-Asn-Cys]-Lou-NH2] ({X3-Suc}-TAFCKRANCL-NH2; disulfide 4-9)	1260 to 3160	126 to 501	–
CC(=O)N[C@H](C(=O)NC(C)(C)C(=O)N[C@@H](Cc1ccccc1)C(=O)N[C@H]1CSSC[C@@H](C(=O)N[C@H](C(=O)N[C@H](C(=O)N[C@@H](CC(=O)O)C(N)=O)[C@@H](C)O)C(C)(C)C)NC(=O)[C@H](CC(N)=O)NC(=O)[C@H](CCCCNC(=O)CCC(=O)NCCCOCCOCCOCCCNC(=O)CN2CCN(CC(=O)O)CCN(CC(=O)O)CCN(CC(=O)O)CC2)NC(=O)[C@H](CCCNC(=N)N)NC(=O)[C@H](CCCCN)NC1=O)[C@@H](C)O [PSM-0542, Ac-Thr-Aib-Phe-[Cys-Lys-Arg-Lys(DOTA-Ttds)-Asn-Cys]-Tle-Thr-Asp-NH2] (Ac-T[Aib]FCKRK([Suc-X3])NC[Tle]TD-NH2; disulfide 4-9)	< 200	< 12.6	–
C[C@@H](O)[C@H](NC(=O)[C@@H](NC(=O)[C@@H]1CSSC[C@H](NC(=O)[C@H](Cc2ccc(Cl)cc2)NC(=O)C(C)(C)NC(=O)[C@@H](NC(=O)CC2CCN(C(=O)CN3CCN(CC(=O)O)CCN(CC(=O)O)CCN(CC(=O)O)CC3)CC2)[C@@H](C)O)C(=O)N[C@@H](CCCCN)C(=O)N[C@@H](CCCNC(=N)N)C(=O)NC(C)(C)C(=O)N[C@@H](CC(N)=O)C(=O)N1)C(C)(C)C)C(N)=O [PSM-0445, DOTA-Cmp-Thr-Aib-Pcf-[Cys-Lys-Arg-Aib-Asn-Cys]-Tle-Thr-NH2] ({DOTA}-[X1]T[Aib][Phe(4-Cl)]CKR[Aib]NC[Tle]T-NH2; disulfide 5-10)	< 200	< 12.6	–
CC(=O)NC(C)(C)C(=O)N[C@@H](Cc1ccccc1)C(=O)N[C@H]1CSSC[C@@H](C(=O)N[C@H](C(=O)N[C@H](C(=O)N[C@@H](CC(=O)O)C(N)=O)[C@@H](C)O)C(C)(C)C)NC(=O)[C@H](CC(N)=O)NC(=O)C(C)(C)NC(=O)[C@H](CCCNC(=N)N)NC(=O)[C@H](CCCCN)NC1=O [PSM-0442, Ac-Aib-Phe-[Cys-Lys-Arg-Aib-Asn-Cys]-Tle-Thr-Asp-NH2] (Ac-[Aib]FCKR[Aib]NC[Tle]TD-NH2; disulfide 3-8)	< 200	< 12.6	–
